What is called AUC(0-inf) is the area under the concentration-time curve extrapolated to infinity. Broadly, the AUC(0-t) is exposure summed from dosing to a finite time, without extrapolation to infinity. A word on the Cmax: it is the peak of the concentration-time curve. As a reminder, the Tmax is the time from dosing to the highest level. As a reminder, the bioavailability is the share of a dose that reaches the circulation, judged against a reference dose that is usually intravenous. Usually CL/F stands for the apparent clearance, not corrected for the fraction that reaches the circulation. In general, MRT refers to the average time that molecules of a dose stay in the body. Usually half-life stands for the time needed for the level to fall by half in the phase considered.

The results in this text go back to patent publication US20210161825A1, “CHLOROQUINE-BASED MATERIALS FOR THE TREATMENT OF DISEASES” (BOARD OF REGENTS OF THE UNIVERSITY OF NEBRASKA, priority 2018, published 2021).

Series [1] can be described thus: Colon pharmacokinetics and distribution after single oral dose in colitis mice. It counts as in vivo. The conditions noted are these: male, C57BL/6, mouse, single oral dose 30 mg/kg CQ equivalent, pCQ = total HCQ. Here is the method: (§1) Male C57BL/6 mice (6 weeks old, 18-20 g) were obtained from Charles River Laboratories and used for all in vivo studies. All animal experiments were conducted according to the protocol approved by the University of Nebraska Medical Center Institutional Animal Care and Use Committee. C. rodentium was used to induce colitis in mice. Bacterial glycerol stock was streaked onto LB agar plates and the bacterial colonies were grown overnight at 37° C. A single colony was inoculated into 5 ml of 2% LB broth and incubated at 37° C., 280 rpm overnight to obtain a saturated primary culture. On the day of the experiment (Day 0), 2 ml of the primary culture was added into 300 ml of LB broth and the inoculum was placed on a shaker at 37° C. at 280 rpm for 6 hours. Bacterial optical density was measured at 600 nm. Bacteria were diluted with LB broth and delivered to mice (n=15) via oral gavage in a 100 μL volume containing 5×10^8 colony forming units (CFU). Healthy control group (n=5) was orally administered 100 μL of LB broth.
(§2) The pharmacokinetics and biodistribution of single dose pCQ was evaluated in a mouse model of IBD. Colitis was induced as described above and on day 14, mice were given a single dose of HCQ or pCQ in 200 μl of deionized water via oral gavage equivalent to 30 mg/kg HCQ. Blood was collected from the submandibular vein at 0.5, 1, 2, 4, 8, and 24 h post-administration. The animals were sacrificed, and organs harvested at 0.5, 2, 8, and 24 h post-administration and stored at −80° C. until further use. The mice were randomized to selected sampling times so that three blood samples and one terminal tissue collection were obtained from each.
(§3) Blood, tissue and fecal samples were processed by two methods to determine free HCQ and total HCQ. For the first method, HCQ was isolated by a simple extraction from the organs as described in Murry et al., J. Chrom. B., (2018) 1072, 320-327. The second method utilized base hydrolysis to release HCQ covalently bound to pCQ and subsequent HCQ extraction using solid phase extraction (SPE). Tissues and feces were homogenized in water prior to loading to the SPE cartridge. The calibration and quality control samples were separately prepared for HCQ and pCQ by spiking 10 μl of appropriate calibration stock of HCQ and pCQ, in 100 μl of blank biomatrix, and 10 μl of internal standard solution (1.0 μg/ml) added. For the study, 25 μl of blood and 100 μl of tissue homogenate were used. 400 μl of 1 M NaOH, 600 μl water and 100 μl methanol were added and the samples were incubated at 50° C. for 1 h to hydrolyze HCQ from the pCQ. […]
(§4) The pharmacokinetic parameters of HCQ and pCQ in blood and tissues were calculated using non-compartmental analysis with Phoenix WinNonlin 6.3 (Pharsight Corporation). […]

Series [2] can be described thus: Blood pharmacokinetics after single oral dose in C. rodentium colitis mice. It counts as in vivo, mouse. The conditions noted are these: for Cmax: pCQ = total (polymer-bound + hydrolyzed) HCQ. As for the experimental part:
as §1, §2
Blood, tissue and fecal samples were processed by two methods to determine free HCQ and total HCQ. For the first method, HCQ was isolated by a simple extraction from the organs as described in Murry et al., J. Chrom. B., (2018) 1072, 320-327. The second method utilized base hydrolysis to release HCQ covalently bound to pCQ and subsequent HCQ extraction using solid phase extraction (SPE). Tissues and feces were homogenized in water prior to loading to the SPE cartridge. The calibration and quality control samples were separately prepared for HCQ and pCQ by spiking 10 μl of appropriate calibration stock of HCQ and pCQ, in 100 μl of blank biomatrix, and 10 μl of internal standard solution (1.0 μg/ml) added. For the study, 25 μl of blood and 100 μl of tissue homogenate were used. 400 μl of 1 M NaOH, 600 μl water and 100 μl methanol were added and the samples were incubated at 50° C. for 1 h to hydrolyze HCQ from the pCQ. Subsequently, 400 μ12% formic acid was added and the samples were vortexed for 30 s and centrifuged at 1301×g for 10 min. The SPE was carried out using Oasis HLB 3cc, 60 mg extraction Cartridge (Waters, Inc). Cartridges were pre-conditioned with 1 ml acetonitrile followed by 1 ml water. Samples were loaded to the cartridges and washed with 2 ml of aqueous 15% methanol and dried at high vacuum for 15 min. Analytes were eluted with 2 ml of acetonitrile. The eluents were collected in glass tubes and dried under nitrogen in water bath at 50° C. The dry residues were reconstituted in 400 μ1 0.1% formic acid:methanol mixture (60:40) and centrifuged at 13000×g and 10 μl supernatant was injected into the HPLC. The LC-MS/MS conditions were as previously described. (Murry et al., J. Chrom. B., (2018) 1072, 320-327.) The assay was linear over the range of 1 to 2000 ng/mL.
The pharmacokinetic parameters of HCQ and pCQ in blood and tissues were calculated using non-compartmental analysis with Phoenix WinNonlin 6.3 (Pharsight Corporation). The maximum concentration (Cmax) and time to Cmax (Tmax) were obtained from the visual inspection of the concentration-time plot. […]

Series [3] concerns CD68 positive cells. Put plainly: Macrophage infiltration in the colon (CD68 staining). As to conditions: oral gavage every other day, 30 mg/kg HCQ equivalent, day 14; vs untreated. It counts as in vivo, mouse.
Experimental: (§5) Colitis was induced as stated above and mice were randomly assigned to healthy, HCQ, and pCQ treatment groups (n=5) and untreated group (n=8). Starting day 1, the mice received oral gavage of either HCQ or pCQ every other day (30 mg/kg HCQ equivalent in 200 μl sterile deionized water). Untreated and healthy controls were administered 200 μl sterile deionized water. On day 14, the mice were sacrificed and the colons were harvested. The colon was opened longitudinally, cleaned of fecal matter, and excised into two parts along the length, which were stored accordingly for determination of cytokine mRNA levels by RT-PCR and histological analysis.
A short description of series [4]: Liver pharmacokinetics and distribution after single oral dose in colitis mice. As to conditions: male, C57BL/6, mouse, single oral dose 30 mg/kg CQ equivalent, pCQ = total HCQ. It counts as in vivo. As for the experimental part:
as §1, §2, §3, §4

In series [5] the test system is IL-2. Nature of the series: Colon cytokine mRNA by RT-PCR, IL-2. It counts as in vivo, mouse. As to conditions: seven oral doses over 14 days; vs untreated.
Experimental: as §5
(§6) Colon samples from the therapeutic study were stored in RNAlater™ (Thermo Fisher Scientific Inc.) at 4° C. for 48 hours to allow sufficient time for tissue penetration followed by removal of excess solution. The tissues were then stored at −80° C. until further processing. […] The extracted mRNA was quantified using Nanodrop Onec UV-Vis spectrophotometer (Thermo Fisher Scientific Inc.). […] A volume corresponding to 1 μg of RNA as determined by UV spectrometer was used for cDNA synthesis. […] Results obtained from the RT-PCR were analyzed by Ct method to determine the fold change in gene expression.
For series [6], the system named is mice with C. rodentium colitis. Nature of the series: Therapeutic efficacy, colon histology (H&E) in C. rodentium colitis. The conditions noted are these: oral gavage every other day, 30 mg/kg HCQ equivalent, vs untreated. Format: in vivo, mouse. Here is the method: Male C57BL/6 mice (6 weeks old, 18-20 g) were obtained from Charles River Laboratories and used for all in vivo studies. All animal experiments were conducted according to the protocol approved by the University of Nebraska Medical Center Institutional Animal Care and Use Committee. C. rodentium was used to induce colitis in mice. Bacterial glycerol stock was streaked onto LB agar plates and the bacterial colonies were grown overnight at 37° C. A single colony was inoculated into 5 ml of 2% LB broth and incubated at 37° C., 280 rpm overnight to obtain a saturated primary culture. […] Bacterial optical density was measured at 600 nm. […]
The longitudinally opened colons were rolled into a Swiss roll from distal to proximal end. […] The stained sections were evaluated by a pathologist without the knowledge of the identity of the samples using a light microscope. […] Crypt heights were measured using ImageJ software, with 10 measurements taken in distal colons of each mouse. Only well-oriented and intact crypts were measured. […] CC3 positive cells in the entire colon roll were counted at 20× magnification. Results were expressed as mean CC3 positive cells per entire colon roll. CD68 positive cells were counted in five randomly chosen areas in the colon roll at high power field (HPF). Results were expressed as mean of CD68 positive cells per HPF.

Series [7] concerns IL-6. Nature of the series: Colon cytokine mRNA by RT-PCR, IL-6. As to conditions: seven oral doses over 14 days; vs untreated. Format: in vivo, mouse.
Experimental: as §5, §6
The mark [8] stands for this setting: male, C57BL/6, mouse, whole blood, blood, single oral dose 30 mg/kg HCQ equivalent, colitis mice, pCQ = total HCQ.

Take `CCN(CCO)CCCC(C)Nc1ccnc2cc(Cl)ccc12` (centres unmarked) [HCQ, Hydroxychloroquine]: in series [1], the AUC(0-inf) was determined as 209 µg·h/mL, the AUC(0-t) turned out to be 166 µg·h/mL, the peak concentration (Cmax) amounted to 10300 ng/mL and the time of peak concentration (Tmax) is 8 h. Further, the peak concentration (Cmax) in series [2] (blood, single oral dose 30 mg/kg HCQ equivalent, colitis mice, 30 mg/kg) was 2,343 ± 46 ng/ml. For the same compound, in series [2] (blood, single oral dose 30 mg/kg HCQ equivalent, colitis mice, pCQ = total HCQ, 30 mg/kg), the “AUC0-∞” value is recorded as 28,182 ± 1476^ h × ng/ml. Further, in series [2] (male, C57BL/6, mouse, whole blood, 30 mg/kg, oral vs i.v., read-out: absolute bioavailability (oral to i.v.)), the bioavailability is 80%. Further, the peak concentration (Cmax) in series [2] (male, C57BL/6, mouse, whole blood, po, 30 mg/kg, blood, single oral dose 30 mg/kg HCQ equivalent, colitis mice, read-out: Cmax) amounted to 2340 ng/mL. In addition, the AUC(0-inf) in series [2] (male, C57BL/6, mouse, whole blood, po, 30 mg/kg, blood, single oral dose 30 mg/kg HCQ equivalent, colitis mice, pCQ = total HCQ) is 28.2 µg·h/mL. Also, in series [2] (setting [8]), the exposure AUC(0-t) came out at 26.4 µg·h/mL, the CL/F was 18.3 mL/min/kg, the MRT was determined as 6.8 ± 0.6 h and the Tmax was 3.3 ± 1.2 h. Also, the half-life in series [2] (setting [8]) is 5.6 ± 1.9 h. Besides, the “macrophage infiltration (CD68 positive cells per HPF)” value in series [3] is on record as “statistically significant reduction”. In series [4], the area under the curve AUC(0-inf) turned out to be 176 µg·h/mL, the AUC(0-t) came out at 168 µg·h/mL, the peak concentration (Cmax) came out at 12800 ng/mL and the Tmax came out at 2 h. Also, the “colon IL-2 expression (mRNA)” value in series [5] is “upregulated”. The colon crypt length result in series [6] (day 14) is “significantly reduced”. Moreover, the “colon inflammation and epithelial injury (H&E)” value in series [6] (sacrifice day 14) is “reduced the colon inflammation and eased the epithelial injury”. For the same compound, the “colon IL-6 expression (mRNA)” value in series [7] is listed as “statistically significant reduction”.
